Common to all, as to test: biochemical
Assay [1] addresses T1, panel of 374 wild-type kinases (Homo sapiens, UniProt Q13464).
T1 construct: purchased Reaction Biology Corporation
To be noted: read-out: % Enzyme Activity (relative to DMSO controls), kinase ROCK1.

For assay [2], the target named is T2, panel of 374 wild-type kinases (Homo sapiens, UniProt P49674).
T2 construct: purchased Reaction Biology Corporation
Particulars: read-out: % Enzyme Activity (relative to DMSO controls), CK1epsilon.

The target in assay [3] is T3, panel of 374 wild-type kinases (Homo sapiens, UniProt Q9H0K1).
T3 construct: purchased Reaction Biology Corporation
T3 sequence (Q9H0K1 whole entry): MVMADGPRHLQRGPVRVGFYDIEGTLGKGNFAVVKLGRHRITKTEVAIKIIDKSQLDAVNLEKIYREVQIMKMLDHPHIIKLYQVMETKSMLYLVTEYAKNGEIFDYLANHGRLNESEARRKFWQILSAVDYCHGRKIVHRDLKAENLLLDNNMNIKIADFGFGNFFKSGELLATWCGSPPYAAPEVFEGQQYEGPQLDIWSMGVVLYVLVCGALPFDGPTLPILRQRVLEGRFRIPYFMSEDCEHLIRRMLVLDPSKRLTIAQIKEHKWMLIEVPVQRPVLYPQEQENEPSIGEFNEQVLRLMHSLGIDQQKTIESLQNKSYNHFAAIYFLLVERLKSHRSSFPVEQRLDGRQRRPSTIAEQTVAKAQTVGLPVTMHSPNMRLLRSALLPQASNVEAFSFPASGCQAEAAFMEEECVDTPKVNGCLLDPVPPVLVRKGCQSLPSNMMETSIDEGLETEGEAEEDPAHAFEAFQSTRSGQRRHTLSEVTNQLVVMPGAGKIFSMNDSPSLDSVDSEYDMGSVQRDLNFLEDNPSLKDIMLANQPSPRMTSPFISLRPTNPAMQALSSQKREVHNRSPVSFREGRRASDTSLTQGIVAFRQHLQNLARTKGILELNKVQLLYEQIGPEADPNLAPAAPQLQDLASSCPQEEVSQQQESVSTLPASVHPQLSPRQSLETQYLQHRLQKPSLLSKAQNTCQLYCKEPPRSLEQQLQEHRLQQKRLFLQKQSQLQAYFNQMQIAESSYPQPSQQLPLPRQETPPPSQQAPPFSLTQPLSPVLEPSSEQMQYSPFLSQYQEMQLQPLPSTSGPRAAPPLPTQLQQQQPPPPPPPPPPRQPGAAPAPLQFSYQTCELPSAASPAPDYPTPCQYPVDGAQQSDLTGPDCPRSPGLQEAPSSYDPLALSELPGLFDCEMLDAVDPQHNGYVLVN
To be noted: read-out: % Enzyme Activity (relative to DMSO controls), kinase SIK2.

In assay [4] the target is T4, panel of 374 wild-type kinases (Homo sapiens, UniProt Q9H4B4).
T4 construct: purchased Reaction Biology Corporation
To be noted: read-out: % Enzyme Activity (relative to DMSO controls), kinase PLK3.

Assay [5] has as its target T5, panel of 374 wild-type kinases (Homo sapiens, UniProt Q00537).
T5 construct: purchased Reaction Biology Corporation
To be noted: read-out: % Enzyme Activity (relative to DMSO controls), CDK17/cyclin Y (PCTK2).

Assay [6] deals with T6, panel of 374 wild-type kinases (Homo sapiens, UniProt O14920).
T6 construct: purchased Reaction Biology Corporation
T6 sequence (O14920 1-756): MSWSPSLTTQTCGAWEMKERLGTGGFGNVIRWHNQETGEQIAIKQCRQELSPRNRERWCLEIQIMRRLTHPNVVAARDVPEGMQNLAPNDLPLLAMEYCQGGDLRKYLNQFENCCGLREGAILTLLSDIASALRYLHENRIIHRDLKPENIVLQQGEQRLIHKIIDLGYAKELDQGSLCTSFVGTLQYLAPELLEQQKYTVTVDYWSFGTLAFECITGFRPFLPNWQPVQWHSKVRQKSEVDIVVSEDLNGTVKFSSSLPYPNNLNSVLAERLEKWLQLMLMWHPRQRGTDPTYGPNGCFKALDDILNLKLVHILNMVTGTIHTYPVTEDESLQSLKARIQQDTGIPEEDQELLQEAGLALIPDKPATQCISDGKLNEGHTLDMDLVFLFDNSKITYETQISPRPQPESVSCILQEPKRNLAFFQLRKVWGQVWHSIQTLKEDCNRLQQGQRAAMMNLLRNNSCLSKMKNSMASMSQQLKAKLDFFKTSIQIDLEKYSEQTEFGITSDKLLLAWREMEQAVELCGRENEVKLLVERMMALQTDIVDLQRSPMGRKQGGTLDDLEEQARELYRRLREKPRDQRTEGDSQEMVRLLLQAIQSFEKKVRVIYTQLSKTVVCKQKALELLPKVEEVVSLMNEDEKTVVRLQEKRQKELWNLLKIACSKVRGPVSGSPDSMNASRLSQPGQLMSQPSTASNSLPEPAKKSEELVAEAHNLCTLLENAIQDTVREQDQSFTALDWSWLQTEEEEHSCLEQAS
To be noted: read-out: % Enzyme Activity (relative to DMSO controls), IKKb/IKBKB.

Assay [7] deals with T7, panel of 374 wild-type kinases (Homo sapiens, UniProt Q15759).
T7 construct: purchased Reaction Biology Corporation
Particulars: read-out: % Enzyme Activity (relative to DMSO controls), P38b/MAPK11.

For assay [8], the target named is T8, panel of 374 wild-type kinases (Homo sapiens, UniProt P49137).
T8 construct: purchased Reaction Biology Corporation
T8 sequence (P49137 whole entry): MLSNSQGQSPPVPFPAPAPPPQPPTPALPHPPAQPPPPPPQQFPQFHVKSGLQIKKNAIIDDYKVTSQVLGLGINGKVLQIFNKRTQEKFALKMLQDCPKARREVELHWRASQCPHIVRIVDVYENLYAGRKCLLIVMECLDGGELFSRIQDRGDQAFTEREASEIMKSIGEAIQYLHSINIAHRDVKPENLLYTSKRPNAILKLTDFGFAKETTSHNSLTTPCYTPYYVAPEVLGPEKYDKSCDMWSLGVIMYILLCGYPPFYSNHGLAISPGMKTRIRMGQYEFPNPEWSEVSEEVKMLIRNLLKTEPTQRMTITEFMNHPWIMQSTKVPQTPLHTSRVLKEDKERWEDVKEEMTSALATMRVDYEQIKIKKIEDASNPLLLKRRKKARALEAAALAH
To be noted: read-out: % Enzyme Activity (relative to DMSO controls), MAPKAPK2.

Assay [9] addresses T9, panel of 374 wild-type kinases (Homo sapiens, UniProt P05129).
T9 construct: purchased Reaction Biology Corporation
To be noted: read-out: % Enzyme Activity (relative to DMSO controls), kinase PKCg.

Assay [10] has as its target T10, panel of 374 wild-type kinases (Homo sapiens, UniProt P42685).
T10 construct: purchased Reaction Biology Corporation
To be noted: read-out: % Enzyme Activity (relative to DMSO controls), FRK/PTK5.

Assay [11] has as its target T11, panel of 374 wild-type kinases (Homo sapiens, UniProt P21709).
T11 construct: purchased Reaction Biology Corporation
T11 sequence (P21709 26-976): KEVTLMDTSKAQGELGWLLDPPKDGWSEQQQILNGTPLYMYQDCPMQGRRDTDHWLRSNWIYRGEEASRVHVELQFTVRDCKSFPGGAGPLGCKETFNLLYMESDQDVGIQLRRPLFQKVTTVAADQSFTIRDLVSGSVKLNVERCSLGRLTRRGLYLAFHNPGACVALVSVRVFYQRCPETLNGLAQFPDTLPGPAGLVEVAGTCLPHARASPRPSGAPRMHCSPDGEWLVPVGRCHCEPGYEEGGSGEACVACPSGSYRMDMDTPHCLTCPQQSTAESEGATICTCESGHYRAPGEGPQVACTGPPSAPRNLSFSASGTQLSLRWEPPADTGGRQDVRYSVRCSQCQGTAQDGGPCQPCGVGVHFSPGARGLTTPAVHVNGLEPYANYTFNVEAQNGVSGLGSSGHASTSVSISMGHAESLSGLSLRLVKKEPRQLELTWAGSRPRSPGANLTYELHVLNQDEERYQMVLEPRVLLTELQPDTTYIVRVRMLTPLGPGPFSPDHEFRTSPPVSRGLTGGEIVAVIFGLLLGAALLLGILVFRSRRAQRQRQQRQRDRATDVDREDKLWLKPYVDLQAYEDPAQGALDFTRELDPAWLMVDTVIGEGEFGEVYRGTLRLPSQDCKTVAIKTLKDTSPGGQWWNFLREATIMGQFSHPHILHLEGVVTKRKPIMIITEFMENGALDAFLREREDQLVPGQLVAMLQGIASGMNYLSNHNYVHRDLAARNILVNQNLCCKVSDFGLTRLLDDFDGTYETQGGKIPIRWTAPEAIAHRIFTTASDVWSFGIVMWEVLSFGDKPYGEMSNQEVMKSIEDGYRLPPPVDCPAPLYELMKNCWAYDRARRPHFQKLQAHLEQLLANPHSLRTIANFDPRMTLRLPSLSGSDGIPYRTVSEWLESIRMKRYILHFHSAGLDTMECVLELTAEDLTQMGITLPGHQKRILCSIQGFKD
To be noted: read-out: % Enzyme Activity (relative to DMSO controls), EPHA1.

Assay [12] has as its target T12, panel of 374 wild-type kinases (Homo sapiens, UniProt Q96SB4).
T12 construct: purchased Reaction Biology Corporation
Particulars: read-out: % Enzyme Activity (relative to DMSO controls), kinase SRPK1.

Assay [13] addresses T13, panel of 374 wild-type kinases (Homo sapiens, UniProt P53355).
T13 construct: purchased Reaction Biology Corporation
To be noted: read-out: % Enzyme Activity (relative to DMSO controls), DAPK1.

Our source for the remaining activity values is patent US20240246942A1, “KINASE INHIBITORS FOR THE TREATMENT OF NEURODEGENERATIVE DISEASES” (priority 2020, published 2024).

T5 sequence (Q00537 whole entry): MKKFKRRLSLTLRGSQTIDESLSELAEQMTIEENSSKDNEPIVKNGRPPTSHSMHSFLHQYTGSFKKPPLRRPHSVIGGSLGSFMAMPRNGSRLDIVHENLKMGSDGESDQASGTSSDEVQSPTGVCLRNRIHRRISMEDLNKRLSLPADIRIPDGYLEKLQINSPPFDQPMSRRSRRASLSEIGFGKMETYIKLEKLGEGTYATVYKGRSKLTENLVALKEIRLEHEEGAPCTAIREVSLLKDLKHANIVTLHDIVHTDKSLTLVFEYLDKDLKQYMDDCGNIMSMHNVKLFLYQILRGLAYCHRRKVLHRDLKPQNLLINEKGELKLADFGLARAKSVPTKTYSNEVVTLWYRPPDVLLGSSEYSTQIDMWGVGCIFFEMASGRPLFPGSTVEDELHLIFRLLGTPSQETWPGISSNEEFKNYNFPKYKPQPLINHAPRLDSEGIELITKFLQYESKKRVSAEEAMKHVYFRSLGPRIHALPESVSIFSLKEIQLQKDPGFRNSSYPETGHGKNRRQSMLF
T1 sequence (Q13464 whole entry): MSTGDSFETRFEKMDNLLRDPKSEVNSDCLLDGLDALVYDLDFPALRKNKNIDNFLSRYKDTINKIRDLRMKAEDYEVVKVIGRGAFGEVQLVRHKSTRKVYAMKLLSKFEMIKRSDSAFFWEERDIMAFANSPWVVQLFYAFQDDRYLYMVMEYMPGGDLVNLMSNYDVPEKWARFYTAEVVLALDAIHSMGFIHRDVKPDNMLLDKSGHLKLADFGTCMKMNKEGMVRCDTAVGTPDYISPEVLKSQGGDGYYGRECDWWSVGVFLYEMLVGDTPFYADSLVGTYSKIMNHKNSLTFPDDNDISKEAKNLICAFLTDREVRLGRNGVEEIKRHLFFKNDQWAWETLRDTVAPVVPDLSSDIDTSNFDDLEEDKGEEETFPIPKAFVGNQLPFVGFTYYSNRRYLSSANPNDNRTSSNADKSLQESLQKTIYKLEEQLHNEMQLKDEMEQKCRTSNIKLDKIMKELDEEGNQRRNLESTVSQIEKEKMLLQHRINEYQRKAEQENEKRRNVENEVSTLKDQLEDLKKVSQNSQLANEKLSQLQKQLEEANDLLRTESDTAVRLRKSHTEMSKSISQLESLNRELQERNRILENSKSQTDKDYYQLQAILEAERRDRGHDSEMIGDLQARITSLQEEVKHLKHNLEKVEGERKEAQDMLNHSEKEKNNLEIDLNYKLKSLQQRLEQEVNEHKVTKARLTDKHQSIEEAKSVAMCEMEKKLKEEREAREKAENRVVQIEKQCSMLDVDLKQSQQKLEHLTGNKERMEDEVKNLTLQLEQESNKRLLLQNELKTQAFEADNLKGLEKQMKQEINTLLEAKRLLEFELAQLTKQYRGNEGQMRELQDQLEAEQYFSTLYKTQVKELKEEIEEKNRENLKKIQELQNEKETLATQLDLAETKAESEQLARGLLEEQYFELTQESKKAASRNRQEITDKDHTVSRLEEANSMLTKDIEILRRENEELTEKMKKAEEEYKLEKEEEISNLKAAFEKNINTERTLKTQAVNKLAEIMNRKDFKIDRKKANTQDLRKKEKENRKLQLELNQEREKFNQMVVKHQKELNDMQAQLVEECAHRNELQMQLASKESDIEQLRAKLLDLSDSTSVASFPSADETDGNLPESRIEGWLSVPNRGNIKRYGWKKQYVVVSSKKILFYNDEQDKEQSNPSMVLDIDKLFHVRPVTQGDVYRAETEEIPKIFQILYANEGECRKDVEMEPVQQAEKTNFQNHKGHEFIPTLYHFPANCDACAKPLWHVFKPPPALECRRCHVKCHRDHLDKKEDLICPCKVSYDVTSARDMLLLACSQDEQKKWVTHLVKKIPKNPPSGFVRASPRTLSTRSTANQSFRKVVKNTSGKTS
T10 sequence (P42685 whole entry): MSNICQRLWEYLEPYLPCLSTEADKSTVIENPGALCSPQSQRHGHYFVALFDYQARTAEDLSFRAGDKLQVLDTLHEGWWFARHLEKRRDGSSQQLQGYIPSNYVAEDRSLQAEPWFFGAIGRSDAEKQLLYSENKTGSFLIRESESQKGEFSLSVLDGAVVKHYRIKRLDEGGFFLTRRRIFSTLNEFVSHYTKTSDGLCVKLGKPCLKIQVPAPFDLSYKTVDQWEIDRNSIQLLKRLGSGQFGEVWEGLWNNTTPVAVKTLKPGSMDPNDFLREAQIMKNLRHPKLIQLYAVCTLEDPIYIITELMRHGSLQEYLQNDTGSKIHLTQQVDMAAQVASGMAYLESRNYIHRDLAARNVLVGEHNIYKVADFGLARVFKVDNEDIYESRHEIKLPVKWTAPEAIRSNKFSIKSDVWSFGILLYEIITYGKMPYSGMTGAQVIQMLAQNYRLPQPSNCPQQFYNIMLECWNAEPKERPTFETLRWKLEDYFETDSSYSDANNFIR
T2 sequence (P49674 whole entry): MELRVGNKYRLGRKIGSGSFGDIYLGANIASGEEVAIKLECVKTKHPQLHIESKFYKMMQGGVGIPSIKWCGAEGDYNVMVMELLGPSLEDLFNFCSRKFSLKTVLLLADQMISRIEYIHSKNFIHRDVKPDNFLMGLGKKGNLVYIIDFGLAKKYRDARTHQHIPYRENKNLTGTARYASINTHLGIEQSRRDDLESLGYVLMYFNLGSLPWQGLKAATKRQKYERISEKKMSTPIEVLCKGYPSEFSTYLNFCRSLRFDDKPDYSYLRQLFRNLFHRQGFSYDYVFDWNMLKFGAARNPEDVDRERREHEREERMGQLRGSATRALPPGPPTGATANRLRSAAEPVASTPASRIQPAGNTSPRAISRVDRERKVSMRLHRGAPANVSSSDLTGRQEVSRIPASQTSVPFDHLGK

With `Cc1sc(C(=O)NC2COC2)cc1-n1cc(NC(=O)Nc2c(F)cccc2Cl)cn1` [Compound 27, 4-(4-(3-(2-chloro-6-fluorophenyl)ureido)-1H-pyrazol-1-yl)-5-methyl-N-(oxetan-3-yl)thiophene-2-carboxamide], the remaining activity at 10 µM stood at 96.8% in assay [1] (10 uM); 97.9% in assay [2] (10 uM); 89.8% in [3] (10 uM); 102% in assay [4] (10 uM); 102% in [5] (10 uM); 86.8% in assay [6] (10 uM). In addition, the remaining activity at 10 µM worked out at 94.3% in assay [7] (10 uM); 93.6% in [8] (10 uM); 102% in assay [9] (10 uM); 87.3% in assay [10] (10 uM); 88.5% in assay [11] (10 uM); 96.9% in [12] (10 uM). The remaining activity at 10 µM in assay [13] (10 uM) turned out to be 104%.

As for `O=C(Nc1cnn(-c2csc(C(=O)NC3COC3)c2)c1)Nc1c(F)cccc1Cl` [Compound 25, 4-(4-(3-(2-chloro-6-fluorophenyl)ureido)-1H-pyrazol-1-yl)-N-(oxetan-3-yl)thiophene-2-carboxamide], the remaining activity at 5 µM in [1] stood at 78.2%; in assay [2], 88.6%; in assay [3], 95.8%; in assay [4], 96%; in assay [5], 96%; in assay [6], 94.7%. The remaining activity at 5 µM in assay [7] was found to be 91.7%; in assay [8], 99.8%; in assay [9] it was 98.3%; in assay [10] it was 95.6%; in assay [11] it was 88.4%; in assay [12] it was 104%. For the same compound, in [13], the remaining activity at 5 µM worked out at 98.9%.

Turning to `O=C(Nc1cnn(-c2csc(C(=O)NC3COC3)c2)c1)Nc1ccccc1Cl` [Compound 17, 4-(4-(3-(2-chlorophenyl)ureido)-1H-pyrazol-1-yl)-N-(oxetan-3-yl)thiophene-2-carboxamide], the remaining activity at 5 µM in assay [1] was 109%; in assay [2], 89.6%; in assay [3], 97%; in [4], 96.1%; in [5], 106%; in [6] it was 95.6%. Also, the remaining activity at 5 µM in assay [7] is 101%; in [8], 97.1%; in [9], 98%; in assay [10], 97.4%; in assay [11] it was 99.1%; in assay [12], 98.7%. For the same compound, the remaining activity at 5 µM in [13] was determined as 104%.
